Legend:
[1] = test system: opossum internal anal sphincter muscle; settings: Baggio et al. 1999; cited from earlier work
[2] = test system: airway hyperresponsiveness; settings: guinea pigs, nebulizer treatment, allergic asthma model; cited from earlier work
[3] = test system: rabbit and human penile corpus cavernosum; settings: Cox et al. 1999; cited from earlier work
[4] = test system: erectile response; settings: live male rabbits; Cama et al. 2003; cited from earlier work
[5] = test system: corpus cavernosum of the diabetic person; settings: ex vivo, Bivalacqua et al. 2001; cited from earlier work
[6] = test system: engorgement response in the genitalia; settings: live female rabbits; Cama et al. 2003; cited from earlier work
[7] = test system: experimental autoimmune encephalomyelitis; settings: Xu et al. 2003; cited from earlier work
[8] = target: T1, Arginase (Homo sapiens, UniProt P05089); experiment: Arginase Thioornithine Generating Assay (TOGA); format: biochemical; settings: recombinant arginase 1.88 nM, thioarginine substrate, fluorescence readout
T1 sequence (P05089 1-322): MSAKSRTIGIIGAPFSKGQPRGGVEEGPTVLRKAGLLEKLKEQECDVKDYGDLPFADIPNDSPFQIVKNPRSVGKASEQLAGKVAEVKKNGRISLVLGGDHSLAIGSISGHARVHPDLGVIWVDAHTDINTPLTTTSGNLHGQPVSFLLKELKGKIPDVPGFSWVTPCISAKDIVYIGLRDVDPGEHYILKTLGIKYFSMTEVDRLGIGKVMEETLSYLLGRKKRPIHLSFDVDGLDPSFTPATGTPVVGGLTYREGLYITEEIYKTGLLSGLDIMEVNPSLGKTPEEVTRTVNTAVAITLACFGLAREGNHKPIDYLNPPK
Protocol: Compounds were serially diluted in ten 3-fold steps in DMSO starting from 10 mM DMSO stocks. Compound dilutions or DMSO alone were then dispensed from the dilution plate into a Greiner black 384-well assay plate (catalog #781086) using an Echo 555 acoustic liquid handler (Labcyte).
Arginase protein was recombinantly expressed in Escherichia coli. Purified protein was then diluted in assay buffer (50 mM Tris pH 7.5, 50 mM NaCl, 1 mM manganese chloride, 0.05% bovine serum albumin to obtain a final Arginase concentration of 1.88 nM. Arginase solution (20 μL) or buffer alone (20 μL) were dispensed to wells of the assay plate using a BioRAPTR liquid dispenser (Beckman Coulter). Assay plates containing compound and arginase enzyme were incubated at room temperature for 30 minutes. Afterwards, 5 μL of 2.5 mM thioarginine (Cayman Chemicals) in assay buffer were added to each well of the assay plate using a BioRAPTR liquid dispenser. Plates were incubated at room temperature for 60 minutes and reactions were quenched by addition of 15 μL of 200 uM 7-Diethylamine-3-(4-maleimidophenyl)-4-methylcoumarin (Sigma Chemical) in 70% ethanol. Plates were briefly shaken to mix and the fluorescence was measured in an Spectramax plate reader (Molecular Devices) with a 410 nm excitation wavelength and an 490 nm emission wavelength.
Potencies were calculated by […] to the four parameter logistic IC50 equation.

N[C@@H](CCCCB(O)O)C(=O)O [ABH, (S)-2-amino-6-boronohexanoic acid]
relaxation of internal anal sphincter muscle [1]: relax this muscle
airway hyperresponsiveness [2]: prevents airway hyperresponsiveness
nitric oxide-dependent relaxation of corpus cavernosum tissue [3]: enhances the nitric oxide-dependent relaxation of this tissue
erectile response [4]: enhances the erectile response
nitric oxide biosynthesis [5]: restores nitric oxide biosynthesis
engorgement response in the genitalia [6]: enhances the engorgement response
disease score [7]: improves the disease score of animals

O=C(O)[C@H]1NC[C@@H]2NCC[C@@]21CCCB(O)O [Example 1, (3aS,4S,6aR)-3a-(3-boronopropyl)octahydropyrrolo[3,4-b]pyrrole-4-carboxylic Acid]
IC50 [8]: 1.61 nM

C[C@]1(CCCB(O)O)[C@@H](C(=O)O)N[C@@H]2CC[C@@H]21 [Example 17, (1R,3S,4R,5R)-4-(3-boronopropyl)-4-methyl-2-azabicyclo[3.2.0]heptane-3-carboxylic Acid]
IC50 [8]: 66.5 nM

C[C@]1(CCCB(O)O)[C@@H](C(=O)O)N[C@H]2C[C@H]21 [Example 24, (1S,3S,4R,5S)-4-(3-boronopropyl)-4-methyl-2-azabicyclo[3.1.0]hexane-3-carboxylic Acid]
IC50 [8]: 5740 nM

O=C(O)[C@H]1NC[C@@H]2NC[C@@]21CCCB(O)O [Example 34, (1S,2S,5R)-1-(3-boronopropyl)-3,6-diazabicyclo[3.2.0]heptane-2-carboxylic Acid]
IC50 [8]: 104 nM

— patent publication US20230140132A1, “ARGINASE INHIBITORS AND METHODS OF USE” (MERCK SHARP & DOHME LLC, priority 2020, published 2023)
